Data on eight compounds can be found in patent publication US7538220B2, “Intermediates in the preparation of homocamptothecin analogs” (University of Pittsburgh - of the Commonwealth System of …, priority 1999, dated 2009).

For series [1] the following is noted: whole human blood; cited from earlier work.
Series [2] in a line: Lactone ring stability in whole human blood by HPLC. The following applies: for Percent Lactone in Human Blood after 3 Hours of Incubation: pH 7.4, 37° C. (Table 4). The procedure: All experiments were conducted at pH 7.4 and 37° C.
(§1) HPLC solvents were from Fisher Scientific.

Series [3] in a line: Fluorescence anisotropy titration, equilibrium binding to DMPC small unilamellar vesicles. The class given is physicochemical. The following applies: electroneutral DMPC vesicles, PBS pH 7.4, 37° C.; K values subject to 10% uncertainty. How it is done: (§2) As a consequence of the brilliant fluorescence emissions from the newly synthesized homosilatecans (a summary of the spectral parameters can be found in Table 1), the lipid bilayer adsorption isotherms summarized in FIG. 4 were relatively free from any background signal. The method of fluorescence anisotropy titration was used to construct the adsorption isotherms. The experiments were conducted at drug concentrations of 1 μM in PBS buffer (37° C.). […] Because of the potential of the lactone ring of the homosilatecans and camptothecins to hydrolyze in PBS, anisotropy values at each lipid concentration were determined immediately (approx. 1 min.) following the addition of the lactone form of each agent to the liposome suspension as to minimize any possibility of conversion to the carboxylate form. Using drug concentrations of 1 μM and long pass filters to isolate emitted light from background signal (that is, scattered exciting light and extraneous fluorescence signal resulting from the possible presence of impurities), signal levels from drugs dissolved in PBS buffer were typically 99.97% in the absence of membrane and greater than 98% in the presence of membrane. Adsorption isotherms were used to determine overall association constants for the homosilatecan, silatecan, and camptothecin drugs. Overall association constants are defined as: K=[AB]/[AF][L] where [AB] represents the concentration of bound drug, [AF] represents the concentration of free drug, and [L] represents the total lipid concentration in the vesicle suspension. This equation is valid when the concentration of free lipid is approximately equal to the concentration of total lipid (that is, the concentration of free lipid is in significant excess over the concentration of bound drug). Provided this condition is satisfied, K may be determined from the inverse of the slope of a double reciprocal plot. In such a double reciprocal plot, 1/fraction of the total drug bound is plotted vs. 1/lipid concentration, with a y-intercept value of 1 (for a system displaying binding site homogeneity). Such double-reciprocal plots for the associations of the new homosilatecans analogs (both lactone and carboxylate forms) with DMPC and DMPG small unilamellar vesicle (SUV) preparations were linear with good correlation coefficients.
(§3) The studies summarized in Table 2 examine the structural basis of homosilatecan associations for lipid bilayers. Two types of membranes were included in these studies which were conducted under near physiological conditions of pH and temperature; these membranes include fluid-phase and electroneutral L-α-dimyristoylphosphatidyl-choline (DMPC); and fluid-phase and negatively-charged L-α-dimyristoylphosphatidylglycerol (DMPG). DMPC and DMPG have identical chain length but the charges on their head groups differ.
(§4) In the studies of Table 2, binding isotherms were constructed using the method of fluorescence anisotropy titration as discussed above, and K values were determined from the slopes of the double-reciprocal plots. The K values are subject to 10% uncertainty. One of the most striking features of the data contained in Table 2 is the strong modulation which can be achieved through the creation of A,B,E-ring modified camptothecins (for example, the homosilatecans known as DB-38, DB-90, and DB-91) or B,E-ring modified camptothecins (for example, the homosilatecan known as DB-81). Homosilatecans containing either a sole substitution at the 7 position or dual substitution at the 7 and 10 positions have been created and found to display very high lipophilicities. Included in Table 2 are camptothecin compounds (topotecan and camptothecin). For DB-81, the lipophilicity for DMPC membranes relative to corresponding value for topotecan increases over 1,400-fold. Data for these agents were included to show the highly lipophilic nature of the new homocamptothecins relative to compounds such as topotecan and camptothecin. […]
A general note: Fluorescence polarisation rises when a labelled molecule tumbles more slowly, as on binding a larger partner.

Series [4] in a line: Fluorescence anisotropy titration, equilibrium binding to DMPG small unilamellar vesicles. Particulars: negatively charged DMPG vesicles, PBS pH 7.4, 37° C.; K values subject to 10% uncertainty. It is filed as physicochemical. The procedure: as §2, §3, §4
The nature of series [5]: Lactone ring stability in PBS by HPLC. The class given is physicochemical. Particulars: PBS pH 7.4, 3 hours, 37° C., 1 μM. How it is done: FIG. 12 contrasts the improved stabilities of four novel homosilatecans of the present invention with their corresponding silatecan structure containing the α-hydroxylactone functionality. All the experiments of FIG. 12 were conducted in PBS at 37° C.
as §1
To determine the stabilities of homosilatecans in PBS, an aliquot of each of the homosilatecans in DMSO was added to phosphate buffered saline (PBS), pH 7.4 in a HPLC autosampler vial maintained at 37° C. in a water bath to result in final drug concentration of 1 μM. The drug-containing vial was quickly transferred to the autosampler maintained at 37° C. and aliquots analyzed at various time points. All the determinations were done in triplicate. The data was collected and analyzed using Waters Millenium software. The fraction of lactone was calculated using the peak area of lactone and carboxylate peak and using the lactone/carboxylate ratio.

The target in series [6] is T1, human serum albumin (HSA) (Homo sapiens, UniProt P02768). The following applies: PBS pH 7.4; cited from earlier work.
Series [7] in a line: Lactone ring stability in mouse blood by HPLC. The following applies: for Ratio of Lactone Level Mouse/Human: blood, 3 hours of incubation; for Percent Lactone in Mouse Blood after 3 Hours of Incubation: pH 7.4, 37° C.
Method: The hydrolysis kinetics of camptothecins in the presence of different blood components were determined by a quantitative C18 reversed-phase high-performance liquid chromatography (HPLC) assay modified from methodologies described previously in the literature cited above. The preparation of whole blood and fractionated blood samples was carried out as described previously. Crystallized HSA of high purity (>97%) from Sigma Chemical (St. Louis, Mo.) was used. HSA stock solutions were prepared in PBS buffer with a final pH of 7.40±0.05. HSA concentrations were determined by UV absorbance at 278 nm using an extinction coefficient of 39,800 M^−1 cm^−1 (Porter, 1992). All other agents were reagent grade and were used without further purification. High purity water provided by a Milli-Q UV PLUS purification system (Bedford, Mass.) was utilized in all experiments. HPLC solvents were from Fisher Scientific. Human plasma and red blood cells were obtained from Central Kentucky Blood Center. […] Blood from mice was collected in heparinized tubes and stored at 5-10° C. until use.
HPLC assays were performed either on a Waters Alliance 2690 HPLC system equipped with a temperature-controlled autosampler and Waters 474 scanning fluorescence detector. A second HPLC system was composed of a Waters HPLC system composed of 501 HPLC pumps, 717 Plus temperature-controlled autosampler and 470 scanning fluorescence detector. The HPLC assay procedures used for the homosilatecans are summarized below. Solvent A consisted of acetonitrile and Solvent B was 2% triethylammonium acetate, pH 5.5, with a flow rate of 1 ml/min. For DB-38 an isocratic elution was used: 33% Solvent A; 67% Solvent B; λex:345 nm and λem:518 nm. For DB-81 an isocratic elution was used: 56% Solvent A; 44% Solvent B; and λex:375 nm and λem:444 nm. For DB-90 an isocratic elution was used: 41% Solvent A; 59% Solvent B; λex:412 nm and λem:526 nm. For DB-91 an isocratic elution of 42% Solvent A, 58% Solvent B, and λex:392 nm and λem:562 nm.
To determine drug stability in whole blood, whole blood was incubated at 37° C. for 30 min and pH determined. Blood pH was adjusted to 7.4+/−0.5 using either 0.1 M KOH or 0.1 M HCl. Blood samples were incubated at 37° C. for 30 min and pH remeasured to ensure that it is within the range before an individual assay was started. Aliquots of blood (2 ml each) were removed and placed in three disposable glass test tubes and the tubes were incubated at 37° C. […] Incubation at 37° C. was continued and 150 μl aliquots were removed at different time points and added to 600 μl of cold methanol (−20° C.) in an eppendorf tube. The tube was then vortexed for 10 sec and centrifuged in a table top microcentrifuge at 8000 rpm for 45 sec. The Supernatant was removed and placed in an autosampler vial and the vial quickly added to the autosampler maintained at 4° C. The sample was analyzed immediately on the HPLC set-up. The data analysis was as described for the drug in PBS only samples.
For series [8] the following is noted: cited from earlier work.
For series [9] the following is noted: previously observed, Burke et al. 1993; cited from earlier work.
The subject of series [10] is MDA-MB-435 tumorigenic metastatic human breast cancer cells. Nature of the series: Cytotoxicity, sulphorrhodamine B (SRB) assay. The following applies: MDA-MB-435, 72 hr exposure, SRB assay, without HSA, read-out: IC50 (w/o HSA). The class given is cell-based. How it is done: Cytotoxicity measurements were conducted using MDA-MB-435 tumorigenic human breast cancer cells. The cells were exposed to a range of drug concentrations for 72 hr exposure periods and then viability was assessed using a sulphorrhodamine B (SRB) assay. The SRB measures the total protein levels in the living cells. Proteins from dead cells are lysed and removed in the washing step before TCA fixation. However, it is possible that cells in the early stage of death still have their membrane integrity and therefore retain the protein contents inside. As a result, the optical density at 490 nm can sometimes be overestimated and the cytotoxicity underestimated. […] The SRB assay is now a well regarded assay and was recently approved by NCl as a standard assay for anticancer drug screening. […] Each IC50 value represents the average of three separate trials with each dosage level studied in triplicate.

Series [11] has as its target T1, human serum albumin (HSA). Put plainly: Binding of camptothecin lactone and carboxylate forms to human serum albumin, frequency-domain fluorescence lifetime spectroscopy.
The conditions of series [12]: PBS solution containing HSA; cited from earlier work.
Where [13] appears, read: whole human blood, 3 hours incubation, pH 7.4, 37° C., 1 μM.

Each structure is given as a SMILES string. Values joined by “and” are separate entries in the source; they are usually repeats but may differ in a detail not shown here. Equal values may be shown once. Read-outs that look alike come from different tables or passages of the source. Bounds are passed on as bounds.

T1 sequence (P02768 25-609): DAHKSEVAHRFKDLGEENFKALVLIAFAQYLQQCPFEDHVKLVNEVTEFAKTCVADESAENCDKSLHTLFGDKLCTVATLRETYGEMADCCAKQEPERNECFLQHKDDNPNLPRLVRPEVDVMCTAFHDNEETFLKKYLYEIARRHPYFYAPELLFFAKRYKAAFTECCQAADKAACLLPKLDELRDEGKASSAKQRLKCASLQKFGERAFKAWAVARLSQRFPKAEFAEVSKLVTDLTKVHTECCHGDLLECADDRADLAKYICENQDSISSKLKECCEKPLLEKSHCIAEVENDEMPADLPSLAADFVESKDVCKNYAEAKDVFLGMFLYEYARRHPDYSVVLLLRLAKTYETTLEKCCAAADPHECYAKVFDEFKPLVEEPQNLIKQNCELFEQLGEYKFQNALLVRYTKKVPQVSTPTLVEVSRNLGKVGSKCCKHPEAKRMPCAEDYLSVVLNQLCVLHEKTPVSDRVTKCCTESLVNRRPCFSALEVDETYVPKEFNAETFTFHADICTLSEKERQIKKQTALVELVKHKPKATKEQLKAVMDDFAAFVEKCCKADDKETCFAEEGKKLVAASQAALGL

As for `CCc1c2c(nc3ccc(O)cc13)-c1cc3c(c(=O)n1C2)COC(=O)[C@]3(O)CC` [SN-38, 7-ethyl-10-hydroxycamptothecin], in series [1], the “percentage of lactone at equilibrium” value was 19.5%. Moreover, the “lactone level at equilibrium relative to 9-aminocamptothecin” value in [2] (whole human blood) is given as “approximately 40 fold”. For the same compound, the “% Lactone” value in [2] (setting [13]) is given as “approx. 30%”. In addition, in series [3], the “KDMPC overall association constant” value is 300 M⁻¹.
Take `CC[C@@]1(O)C(=O)OCc2c1cc1n(c2=O)Cc2cc3c(CN(C)C)c(O)ccc3nc2-1` [Topotecan, reference compound]: in series [1], the “percentage of lactone at equilibrium” value is 11.9%. Moreover, in series [2] (male, human, 1 μM, pH 7.4), the “lactone level at equilibrium relative to 9-aminocamptothecin” value turned out to be 20 fold. For the same compound, the “% Lactone” value in series [2] (male, human, 3 h, 1 μM, pH 7.4) was “approx. 15%”; in [5] it was “approximately 12%”. Also, in series [3], the “KDMPC overall association constant” value was determined as 10 M⁻¹. Further, in series [4], the “KDMPG overall association constant” value was 50 M⁻¹.
Take `CCC(O)(CC(=O)O)c1cc2n(c(=O)c1CO)Cc1c-2nc2ccc(O)cc2c1[Si](C)(C)C(C)(C)C` (stereo not drawn) [DB-91 carboxylate form, ring-opened or carboxylate form of 7-t-butyldimethylsilyl-10-hydroxyhomocamptothecin]: the “KDMPC overall association constant” value in series [3] was 700 M⁻¹. For the same compound, the “KDMPG overall association constant” value in series [4] stood at 100 M⁻¹.
Turning to `CC[C@@]1(O)C(=O)OCc2c1cc1n(c2=O)Cc2cc3ccccc3nc2-1` [Camptothecin], the “HSA binding affinity of carboxylate form relative to lactone form” value in [6] was 200 fold and > 100 fold. Besides, in series [7], the “Ratio of Lactone Level Mouse/Human” value is given as 3 and the “Percent Lactone in Mouse Blood after 3 Hours of Incubation” value worked out at 20%. In series [8] (human plasma, pH 7.4, 37° C.), the “percentage of lactone at equilibrium” value is listed as 0.2% and the “t1/2 of lactone ring opening” value is 11 min. For the same compound, the “decrease in affinity for DMPC upon opening of the lactone ring” value in series [9] is recorded as 3 fold. Besides, in [1], the “t1/2 of lactone ring opening” value is recorded as 22 min. Further, the “Percent Lactone in Human Blood after 3 Hours of Incubation” value in [2] is on record as 7%. In series [2] (whole human blood), the “lactone level at equilibrium relative to 9-aminocamptothecin” value is given as “approximately 10 fold”. Moreover, the “% Lactone” value in [2] (setting [13]) is “approx. 6%”. Moreover, in series [10], the IC50 came out at 12 ± 4 nM. Further, the “KDMPC overall association constant” value in series [3] turned out to be 100 M⁻¹. Further, the “HSA binding preference for the carboxylate relative to the lactone” value in [11] was 200 fold. Besides, the “K, HSA binding of the carboxylate form” value in [11] (carboxylate form) was 1.2e+06 M⁻¹. Besides, the “K, HSA binding of the lactone form” value in series [11] (lactone form) was “≈ 5.5×10^3 M^−1”. Also, the “KDMPG overall association constant” value in series [4] stood at 100 M⁻¹. In addition, the “% Lactone” value in series [5] is given as “approximately 12%”.
Regarding `CC[C@@]1(O)C(=O)OCc2c1cc1n(c2=O)Cc2c-1nc1ccc(O)cc1c2[Si](C)(C)C(C)(C)C` [DB-67, reference compound], the “KDMPC overall association constant” value in [3] is given as 2,500 M^−1.
`CCC(O)(CC(=O)O)c1cc2n(c(=O)c1CO)Cc1c-2nc2ccc(N)cc2c1[Si](C)(C)C(C)(C)C` (stereo not drawn) [DB-90 carboxylate form, carboxylate form of 7-t-butyl-dimethylsilyl-10-aminohomocamptothecin]: the “KDMPC overall association constant” value in series [3] was found to be 770 M⁻¹. Also, the “KDMPG overall association constant” value in [4] was 80 M⁻¹.
For the compound `CC[C@@]1(O)C(=O)OCc2c1cc1n(c2=O)Cc2cc3c(N)cccc3nc2-1` [9-Aminocamptothecin, 9-aminocamptothecin], in [7], the “Ratio of Lactone Level Mouse/Human” value turned out to be 100 and the “Percent Lactone in Mouse Blood after 3 Hours of Incubation” value is 38%. For the same compound, the “percentage of lactone at equilibrium” value in series [8] (human plasma, pH 7.4, 37° C.) was 0.2%. Also, the “fraction converted to carboxylate” value in [8] (plasma) is recorded as more than 99.5%. In series [12], the extent of hydrolysis was more than 99%. Besides, the “Percent Lactone in Human Blood after 3 Hours of Incubation” value in series [2] turned out to be 0.4%. Further, the “% Lactone” value in series [2] (setting [13]) is on record as “approx. 0.3%”.
Turning to `CCc1c2c(nc3ccc(OC(=O)N4CCC(N5CCCCC5)CC4)cc13)-c1cc3c(c(=O)n1C2)COC(=O)[C@]3(O)CC` [CPT-11], the “percentage of lactone at equilibrium” value in series [1] is 21.0%. In [2] (whole human blood), the “lactone level at equilibrium relative to 9-aminocamptothecin” value is “approximately 40 fold”. Besides, the “% Lactone” value in series [2] (setting [13]) was “approx. 21.0%”.
